Like-named read-outs stand apart in the source and are kept apart here.
Target: T1, full-length SARM1 (FL-SARM1) (Homo sapiens, UniProt Q6SZW1)
T1 sequence (Q6SZW1 28-724): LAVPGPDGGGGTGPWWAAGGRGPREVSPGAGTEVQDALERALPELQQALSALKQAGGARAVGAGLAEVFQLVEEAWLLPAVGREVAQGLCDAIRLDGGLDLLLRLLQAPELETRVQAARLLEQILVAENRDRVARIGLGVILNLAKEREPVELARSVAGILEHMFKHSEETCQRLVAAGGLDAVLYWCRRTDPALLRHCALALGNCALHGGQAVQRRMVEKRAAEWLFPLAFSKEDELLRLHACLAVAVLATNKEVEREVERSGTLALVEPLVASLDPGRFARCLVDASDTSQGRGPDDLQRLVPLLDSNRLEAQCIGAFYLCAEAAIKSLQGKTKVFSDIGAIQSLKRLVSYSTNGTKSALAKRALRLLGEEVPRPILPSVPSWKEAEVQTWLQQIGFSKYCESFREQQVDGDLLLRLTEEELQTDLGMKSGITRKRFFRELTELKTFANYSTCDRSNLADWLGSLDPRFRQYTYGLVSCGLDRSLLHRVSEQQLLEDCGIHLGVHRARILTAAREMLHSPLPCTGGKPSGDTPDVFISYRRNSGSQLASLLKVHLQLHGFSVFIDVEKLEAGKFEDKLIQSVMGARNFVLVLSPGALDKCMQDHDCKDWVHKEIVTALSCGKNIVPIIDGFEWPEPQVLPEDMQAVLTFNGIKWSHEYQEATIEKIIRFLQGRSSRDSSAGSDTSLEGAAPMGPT
Assay: FL-SARM1 cellular lysate assay (NAD/NADH-Glo detection of remaining NAD+, NMN-activated)

[1] = Activity (IC50 class), 11 point curve
[2] = Activity (μM) (IC50), 11 point curve
[3] = read-out: Activity (IC50 class), 11 point curve

Work on `Cc1ccc(NC(=O)N2CCCC3CC32)cc1-c1ccccn1` (stereo not shown) [Example 99, N-(4-methyl-3-pyridin-2-ylphenyl)-2-azabicyclo[4.1.0]heptane-2-carboxamide] yielded an IC50 [1] greater than 10 µM and an IC50 [2] of 18 µM.
`Cc1ccc(NC(=O)[C@@H]2CC2(F)F)cc1-c1ccc(Cl)cn1` [Example 160, (1S)-N-[3-(5-chloropyridin-2-yl)-4-methylphenyl]-2,2-difluorocyclopropane-1-carboxamide] was tested, and the IC50 [1] was 1 to 10 µM and the IC50 [2] was 2.5 µM.
Compound `Cc1ccc(NC(=O)C2COC(C)(C)CN2c2ncccn2)cc1-c1ncccn1` (single isomer, unassigned) [Example 208, 6,6-dimethyl-N-(4-methyl-3-(pyrimidin-2-yl)phenyl)-4-(pyrimidin-2-yl)morpholine-3-carboxamide] has an IC50 [1] of 1 to 10 µM and an IC50 [2] of 3.3 µM.
`Cc1ccc(NC(=O)N2C3CCC2c2c(F)cncc23)cc1-c1ccccn1` (stereo not shown) [Example 15, 4-fluoro-N-(4-methyl-3-(pyridin-2-yl)phenyl)-5,6,7,8-tetrahydro-5,8-epiminoisoquinoline-9-carboxamide] showed an IC50 [2] of 0.4 µM and an IC50 [3] of 0.0001 to 1 µM.
Work on `Cc1cc(F)c(NC(=O)N2C3CCCC2C3)cc1-c1ccccn1` [Example 43, N-(2-fluoro-4-methyl-5-(pyridin-2-yl)phenyl)-6-azabicyclo[3.1.1]heptane-6-carboxamide] yielded an IC50 [2] of 0.2 µM and an IC50 [3] of 0.0001 to 1 µM.
With `Cc1ccc(NC(=O)C2CCC(C)CCN2c2ccccn2)cc1-c1ncccn1` (mixture of isomers) [Example 259, 5-methyl-N-(4-methyl-3-(pyrimidin-2-yl)phenyl)-1-(pyridin-2-yl)azepane-2-carboxamide] the IC50 [1] was 1 to 10 µM and the IC50 [2] was 5.8 µM.
With `Cc1ccc(NC(=O)N2C3C[C@@H](C)C[C@H]2C3)cc1-c1nncc(C(F)(F)F)n1` [Example 184, cis-3-methyl-N-(4-methyl-3-(5-(trifluoromethyl)-1,2,4-triazin-3-yl)phenyl)-6-azabicyclo[3.1.1]heptane-6-carboxamide] the IC50 [2] was 0.07 µM and the IC50 [3] was 0.0001 to 1 µM.
Work on `CSc1ncc(N2[C@@H](C(=O)Nc3ccc(C)c(-c4ncc(F)cn4)c3)C[C@H]3C[C@H]32)nn1` [Example 172, (1R,3R,5R)—N-(3-(5-fluoropyrimidin-2-yl)-4-methylphenyl)-2-(3-(methylthio)-1,2,4-triazin-6-yl)-2-azabicyclo[3.1.0]hexane-3-carboxamide] yielded an IC50 [1] of 1 to 10 µM and an IC50 [2] of 6.2 µM.
`Cc1ccc(NC(=O)N2C3CCCC2C3)cc1-c1ncccc1C#N` [Example 33, N-(3-(3-cyanopyridin-2-yl)-4-methylphenyl)-6-azabicyclo[3.1.1]heptane-6-carboxamide] gave an IC50 [1] of 1 to 10 µM and an IC50 [2] of 1.2 µM.
With `Cc1ccc(NC(=O)N2C3CCC2[C@@H](C)C3)cc1-c1ncc(F)cn1` (single isomer, unassigned) [Example 196, cis-N-(3-(5-fluoropyrimidin-2-yl)-4-methylphenyl)-2-methyl-7-azabicyclo[2.2.1]heptane-7-carboxamide] the IC50 [2] was 0.8 µM and the IC50 [3] was 0.0001 to 1 µM.
Compound `Cc1ccc(NC(=O)C(C)(C)C)cc1-c1ccccn1` [Example 141, 2,2-dimethyl-N-(4-methyl-3-pyridin-2-ylphenyl)propanamide] has an IC50 [1] greater than 10 µM and an IC50 [2] of 19 µM.
`COC(C)[C@@]12CC(C[C@@H](C)C1)N2C(=O)Nc1ccc(C)c(-c2ncc(F)cn2)c1` (single isomer, unassigned) [Example 191, cis-N-(3-(5-fluoropyrimidin-2-yl)-4-methylphenyl)-1-(1-methoxyethyl)-3-methyl-6-azabicyclo[3.1.1]heptane-6-carboxamide] showed an IC50 [2] of 0.0009 µM and an IC50 [3] of 0.0001 to 1 µM.
With `Cc1ccc(NC(=O)N2[C@@H]3C[C@@H](C)C[C@H]2C3)cc1-c1nccnc1C(F)(F)F` [Example 229, cis-3-methyl-N-[4-methyl-3-[3-(trifluoromethyl)pyrazin-2-yl]phenyl]-6-azabicyclo[3.1.1]heptane-6-carboxamide] the IC50 [2] was 0.2 µM and the IC50 [3] was 0.0001 to 1 µM.
`Cc1ccc(NC(=O)N2CCC[C@@H]2c2ccccc2)cc1-c1ccccn1` [Example 95, (2R)-N-(4-methyl-3-pyridin-2-ylphenyl)-2-phenylpyrrolidine-1-carboxamide] gave an IC50 [1] of 1 to 10 µM and an IC50 [2] of 1.4 µM.
Work on `Cc1ccc(NC(=O)CC2CCC2)cc1-c1cccnn1` [Example 167, 2-cyclobutyl-N-(4-methyl-3-pyridazin-3-ylphenyl)acetamide] yielded an IC50 [1] greater than 10 µM and an IC50 [2] of 11 µM.
For `Cc1ccc(NC(=O)[C@H]2CC[C@H](C)N2c2ccccn2)cc1-c1ncc(F)cn1` [Example 281, (2R,5S)-N-[3-(5-fluoropyrimidin-2-yl)-4-methylphenyl]-5-methyl-1-pyridin-2-ylpyrrolidine-2-carboxamide], the IC50 [1] was 1 to 10 µM and the IC50 [2] was 1.3 µM.
`Cc1ccc(NC(=O)C(C)(O)C2CCC2)cc1-c1ccccn1` (racemic) [Example 118, 2-cyclobutyl-2-hydroxy-N-(4-methyl-3-pyridin-2-ylphenyl)propanamide] was tested, and the IC50 [1] was 1 to 10 µM and the IC50 [2] was 6.1 µM.
`Cc1ccc(NC(=O)N2C3CCC2c2cnccc23)cc1-c1ccccn1` (stereo not shown) [Example 26, N-(4-methyl-3-(pyridin-2-yl)phenyl)-5,6,7,8-tetrahydro-5,8-epiminoisoquinoline-9-carboxamide] gave an IC50 [1] of 1 to 10 µM and an IC50 [2] of 1.3 µM.
`Cc1ccc(NC(=O)[C@H]2C[C@@H](C(F)(F)F)CN2c2ncn(C)n2)cc1-c1ncc(F)cn1` [Example 175, (2R,4R)—N-(3-(5-fluoropyrimidin-2-yl)-4-methylphenyl)-1-(1-methyl-1H-1,2,4-triazol-3-yl)-4-(trifluoromethyl)pyrrolidine-2-carboxamide] was tested, and the IC50 [1] was 1 to 10 µM and the IC50 [2] was 2.4 µM.
Work on `Cc1ccc(NC(=O)[C@@H]2C[C@@H]2C2CC2)cc1-c1cccnn1` (racemic) [Example 284, cis-2-cyclopropyl-N-(4-methyl-3-pyridazin-3-ylphenyl)cyclopropane-1-carboxamide] yielded an IC50 [1] of 1 to 10 µM and an IC50 [2] of 1.8 µM.
Compound `Cc1ccc(NC(=O)C2CCC23CC3)cc1-c1ccccn1` (racemic) [Example 113, N-(4-methyl-3-pyridin-2-ylphenyl)spiro[2.3]hexane-6-carboxamide] has an IC50 [1] of 1 to 10 µM and an IC50 [2] of 2.5 µM.
`Cc1ccc(NC(=O)N2C3CCC2c2ncccc23)cc1-c1ccccn1` (stereo not shown) [Example 100, N-(4-methyl-3-pyridin-2-ylphenyl)-3,11-diazatricyclo[6.2.1.02,7]undeca-2,4,6-triene-11-carboxamide] gave an IC50 [2] of 0.6 µM and an IC50 [3] of 0.0001 to 1 µM.
Compound `Cc1ccc(NC(=O)[C@@H]2C[C@@H]3C[C@@H]3C2)cc1-c1ncc(F)cn1` [Example 325] has an IC50 [1] of 1 to 10 µM and an IC50 [2] of 1.2 µM.
For `CCOC(C)[C@@]12CC(C[C@@H](C)C1)N2C(=O)Nc1ccc(C)c(-c2ncc(F)cn2)c1` (single isomer, unassigned) [Example 188, cis-1-(1-ethoxyethyl)-N-(3-(5-fluoropyrimidin-2-yl)-4-methylphenyl)-3-methyl-6-azabicyclo[3.1.1]heptane-6-carboxamide], the IC50 [2] was 0.003 µM and the IC50 [3] was 0.0001 to 1 µM.
`Cc1ccc(NC(=O)[C@@H]2CC2(F)F)cc1-c1ccc(C(F)(F)F)cn1` [Example 154, (1S)-2,2-difluoro-N-[4-methyl-3-[5-(trifluoromethyl)pyridin-2-yl]phenyl]cyclopropane-1-carboxamide] showed an IC50 [1] of 1 to 10 µM and an IC50 [2] of 9.9 µM.
Compound `Cc1ccc(NC(=O)[C@@H]2CC[C@@H](C3CC3)N2c2ccccn2)cc1-c1ncc(F)cn1` (racemic) [Example 274, trans-5-cyclopropyl-N-(3-(5-fluoropyrimidin-2-yl)-4-methylphenyl)-1-(pyridin-2-yl)pyrrolidine-2-carboxamide] has an IC50 [1] of 1 to 10 µM and an IC50 [2] of 1.2 µM.
Work on `Cc1ccc(NC(=O)C2C3CCC2C3)cc1-c1ccccn1` (stereo not shown) [Example 123, N-(4-methyl-3-pyridin-2-ylphenyl)bicyclo[2.1.1]hexane-5-carboxamide] yielded an IC50 [2] of 0.3 µM and an IC50 [3] of 0.0001 to 1 µM.
`Cc1ccc(NC(=O)N2C3C[C@@H]2CC[C@H]3C)cc1-c1ccccn1` (single isomer, unassigned) [Example 49, trans-2-methyl-N-(4-methyl-3-(pyridin-2-yl)phenyl)-6-azabicyclo[3.1.1]heptane-6-carboxamide] was tested, and the IC50 [2] was 0.2 µM and the IC50 [3] was 0.0001 to 1 µM.
Compound `Cc1cc(F)c(NC(=O)N2[C@@H]3C[C@@H](C)C[C@H]2C3)cc1-c1ccccn1` [Example 255, cis-N-(2-fluoro-4-methyl-5-pyridin-2-ylphenyl)-3-methyl-6-azabicyclo[3.1.1]heptane-6-carboxamide] has an IC50 [2] of 0.02 µM and an IC50 [3] of 0.0001 to 1 µM.

From patent US20250171462A1 (NICO Therapeutics, Inc., priority 2022, published 2025)
